Test results from US20260159519A1, “IMIDAZOPYRIDAZINE SUBSTITUTED BENZENE RING DERIVATIVE, PREPARATION METHOD, PHARMACEUTICAL COMPOSITION AND USE” (SHANGHAI SIMR BIOTECHNOLOGY CO., LTD., priority 2022, published 2026).
Like-named read-outs stand apart in the source and are kept apart here.

Experiments:
[1] = molecular target: T1, human α2-GABAA receptor (BZD site, membrane protein of HEK293 cells) (Homo sapiens, UniProt P18507+P47869); experiment: Radioligand competitive binding assay (3H-flunitrazepam) at the BZD site of the α2-GABAA receptor
T1 construct: expressed in transfected cells
From the text: (§1) α subunit, β subunit, and γ subunit are essential for the formation of a complete and functional GABAA receptor. In this example of the present disclosure, HEK293 cells stably expressing the human α1-GABAA receptor (α1-GABAAR) and α2-GABAA receptor (α2-GABAAR) were constructed and separately selected using the lipofection method (Felgner, P. L., et al. Proceedings of the National Academy of Sciences, 1987, 84: 7413-7417). The α1-GABAAR-HEK293 cell model simultaneously expressed the α1 subunit (for protein sequence, see GenBank accession No.: NM_000806.5), the […] (for protein sequence, see GenBank accession No.: NM_000814.5), and the […] (for protein sequence, see GenBank accession No.: NM_000816.3). The α2-GABAAR-HEK293 cell model simultaneously expressed the α2 subunit (for protein sequence, see GenBank accession No.: NM_000807.4), the β3 subunit (for protein sequence, see GenBank accession No.: NM_000814.5), and the γ2 subunit (for protein sequence, see GenBank accession No.: NM_000816.3).
(§2) The above cell lines were subcultured. The α2-GABAAR-HEK293 cells were expanded for testing the affinity of compounds to the benzodiazepine (BZD) site of the GABAA receptor. During the passage process, some of the α1-GABAAR-HEK293 cells and α2-GABAAR-HEK293 cells were suspended and plated on a slide pre-treated with Poly-D-Lysine for electrophysiological testing (method referenced from patent CN107344936A, paragraph 0586).
The affinity of the compounds for the α2-GABAA receptor was determined by competing for the binding of ^3H-flunitrazepam (isotope ^3H-labelled flunitrazepam) to the BZD site on the membrane protein of HEK293 cells stably expressing the human α2-GABAAR.
Membrane preparation: Cells were suspended in 50 mM Tris-HCl buffer (pH=7.4), homogenized 10 times for 20 seconds with a homogenizer on ice, and centrifuged at 1000 g for 10 minutes at 4° C. The supernatant was taken, and the above steps were repeated. The supernatant was centrifuged at 4° C. (33800 g; Thermo, rotor: A27-8×50) for 60 minutes. The precipitate was resuspended in Tris buffer (50 mM Tris-HCl, 10 mM MgCl2, 0.5 mM EDTA, and 10% glycerol). The protein content was determined (BCA (bicinchoninic acid) protein quantification assay based on copper ion reduction, with a BCA kit purchased from Pierce (Annoron (Beijing) Biotechnology Co., Ltd.)), and 1 mL aliquots were prepared and stored at −80° C.
Radioligand competitive binding assay: This assay was performed in a 200 μL system (96-well plate) containing 100 μL of cell membrane. The concentration of ^3H-flunitrazepam was 1 nM, and the concentrations of the test compounds were in the range of […]. Flumazenil was used as a control. 1 μL of 2 mM flumazenil (final […]) was added to each low signal control (low control, LC) well, and 1 μL of dimethyl sulfoxide was added to each high signal control (high control, HC) well. The final concentration of target membrane protein was […]. All sample stock solutions of test compounds were 10 mM dimethyl sulfoxide solutions. All the samples were diluted to a concentration of 0.2 mM with dimethyl sulfoxide, and then subjected to a 4-fold serial dilution for a total of 8 working concentration gradients. The 96-well plate was sealed with a sealing membrane and then incubated on a shaker at room temperature for 1 hour. Meanwhile, a GF/C filter plate was soaked in plate soaking buffer (0.3% PEI (polyethyleneimine, purchased from Sigma-Aldrich, model: P314), stored at 4° C.) for at least 0.5 hours. After the binding incubation was completed, the cells were harvested onto the GF/C filter plate using a cell harvester and washed four times with plate washing buffer (50 mM Tris-HCl, pH 7.4, stored at 4° C.). After drying in an oven at 50° C. for 1 hour, the dried GF/C filter plate was bottom-sealed. The residual radioactivity on the filter membrane was detected by liquid scintillation counting.

[2] = molecular target: T2, human α2-GABAA receptor (α2-GABAAR-HEK293 cells) (Homo sapiens, UniProt P18507+P47869); experiment: Whole-cell patch-clamp electrophysiology, positive allosteric modulatory activity on α2-GABAA receptor; format: cell-based; conditions: read-out: α2-GABAA positive allosteric modulatory activity
T2 construct: expressed in transfected cells
From the text: as §1, §2
(§3) The positive regulatory activity of the test drugs on the α1-GABAA receptor and the α2-GABAA receptor was detected by the electrophysiological method. The specific method was as follows:
(§4) Compound concentration setting: The final concentration of the compounds used for screening was 100 nM. For cell lines expressing the α1-GABAA receptor, the concentration of GABA was 0.05 to 0.07 μM (approximately EC2-4). For cell lines expressing the α2-GABAA receptor, the concentration of GABA was 0.10 to 0.11 μM (approximately EC7-8). Electrophysiological testing was performed using the whole-cell patch-clamp technique, which can refer to the method reported in the literature (Nickolls, S. A., et al. British Journal of Pharmacology, 2018, 175: 708-725). The composition of the extracellular solution (ECS) for electrophysiology was as follows: 150 mM NaCl, 5 mM KCl, 2.5 mM CaCl2, 1 mM MgCl2, 10 mM HEPES, and 10 mM glucose (pH 7.4). The formulation of the intracellular solution (ICS) for electrophysiology was as follows: 140 mM CsCl, 11 mM EGTA, 10 mM HEPES, 2 mM CaCl2, 1 mM MgCl2, 4 mM MgATP, and 2 mM TEA (pH 7.3). GABA (γ-aminobutyric acid) powder was prepared into a mother liquor with pure water, which was then diluted in ECS. The compound was first prepared into a 4 mM mother liquor with dimethyl sulfoxide, which was then gradually diluted in the corresponding concentration of GABA-ECS. The solutions were freshly prepared prior to electrophysiological testing.
(§5) Electrophysiological signal acquisition was performed using an EPC 10 amplifier and PatchMaster software (HEKA) or an Axon 700B amplifier and Clampex software (AXON). The recording electrode was made through a drawing process using borosilicate glass, with an electrode resistance of 4 to 6 MΩ. Extracellular administration was performed using the ALA-VC-8PG™ system. A single, independently growing cell was selected. After the glass electrode formed a good seal with the cell, the membrane was ruptured to form the whole-cell configuration. The cell membrane potential was clamped at −60 mV and recorded in Gap-free mode. During the test, the extracellular solution was first applied extracellularly for approximately 20 seconds. After the baseline (Iprebaseline) stabilized, the extracellular solution was switched to GABA-ECS. At this point, the current induced by GABA (Igaba) could be detected. After approximately 10 to 20 seconds, when the current stabilized, the extracellular solution was switched to a mixture of the compound and GABA-ECS. […]

[3] = molecular target: T3, human α1-GABAA receptor (α1-GABAAR-HEK293 cells) (Homo sapiens, UniProt P14867+P18507); experiment: Whole-cell patch-clamp electrophysiology, positive allosteric modulatory activity on α1-GABAA receptor; format: cell-based; conditions: read-out: α1-GABAA positive allosteric modulatory activity
T3 construct: expressed in transfected cells
From the text: as §1, §2, §3, §4, §5

[4] = competition with 1 nM 3H-flunitrazepam, Ki calculated from IC50, read-out: α2 Ki

CCn1cnc2c(-c3ccc(F)c(-c4cc5cnn(C)c5cc4OC)c3)cnnc21 [Example 142, 7-Ethyl-4-(4-fluoro-3-(6-methoxy-1-methyl-1H-indazol-5-yl)phenyl)-7H-imidazo[4,5-c]pyridazine]
Ki [1, 4]: 4.54 nM | activation at 0.1 µM [2]: 99% | activation at 0.1 µM [3]: 36%

CCn1cnc2c(-c3ccc(F)c(-c4cc5c(cc4OC)N(C)C(=O)C(C)O5)c3)cnnc21 (stereo not drawn) [Example 26, 7-(5-(7-Ethyl-7H-imidazo[4,5-c]pyridazin-4-yl)-2-fluorophenyl)-6-methoxy-2,4-dimethyl-2H-benzo[b][1,4]oxazin-3(4H)-one]
Ki [1, 4]: 8.95 nM | activation at 0.1 µM [2]: 120% | activation at 0.1 µM [3]: 48%

CCn1cnc2c(-c3ccc(F)c(-c4cc5ccn(C)c(=O)c5cc4OC)c3)cnnc21 [Example 121, 6-(5-(7-Ethyl-7H-imidazo[4,5-c]pyridazin-4-yl)-2-fluorophenyl)-7-methoxy-2-methylisoquinolin-1(2H)-one]
Ki [1, 4]: 3.02 nM | activation at 0.1 µM [2]: 90% | activation at 0.1 µM [3]: -6%

CCN1C(=O)Cc2cc(-c3cc(-c4cnnc5c4ncn5CC)ccc3F)c(OC)cc21 [Example 167, 1-Ethyl-5-(5-(7-ethyl-7H-imidazo[4,5-c]pyridazin-4-yl)-2-fluorophenyl)-6-methoxyindol-2-one]
Ki [1, 4]: 13.9 nM | activation at 0.1 µM [2]: 125% | activation at 0.1 µM [3]: 35%

CCn1cnc2c(-c3ccc(F)c(-c4cc5cn(-c6ccccc6)nc5cc4OC)c3)cnnc21 [Example 101, 7-Ethyl-4-(4-fluoro-3-(6-methoxy-2-phenyl-2H-indazol-5-yl)phenyl)-7H-imidazo[4,5-c]pyridazine]
Ki [1, 4]: 4.46 nM | activation at 0.1 µM [2]: 157% | activation at 0.1 µM [3]: 56%

CCn1cnc2c(-c3ccc(F)c(-c4ccc5c(nnn5C)c4OC)c3)cnnc21 [Example 81, 7-Ethyl-4-(4-fluoro-3-(4-methoxy-1-methyl-1H-benzo[d][1,2,3]triazol-5-yl)phenyl)-7H-imidazo[4,5-c]pyridazine]
Ki [1, 4]: 2.34 nM | activation at 0.1 µM [2]: 83% | activation at 0.1 µM [3]: -25%

CCn1cnc2c(-c3ccc(F)c(-c4cc5cn(C6CN(C)C6)nc5cc4OC)c3)cnnc21 [Example 117]
Ki [1, 4]: 15.2 nM | activation at 0.1 µM [2]: 86% | activation at 0.1 µM [3]: 37%

CCn1cnc2c(-c3ccc(F)c(-c4cc5c(cc4OC)N(CCN(C)C)C(=O)CO5)c3)cnnc21 [Example 22, 4-(2-(Dimethylamino)ethyl)-7-(5-(7-ethyl-7H-imidazo[4,5-c]pyridazin-4-yl)-2-fluorophenyl)-6-methoxy-2H-benzo[b][1,4]oxazin-3(4H)-one]
Ki [1]: 10 nM | activation at 0.1 µM [2]: 115% | activation at 0.1 µM [3]: 53%

CCn1cnc2c(OC)c(-c3cc(-c4cnnc5c4ncn5CC)ccc3F)ccc21 [Example 119, 7-Ethyl-4-(3-(1-ethyl-4-methoxy-1H-benzo[d]imidazol-5-yl)-4-fluorophenyl)-7H-imidazo[4,5-c]pyridazine]
Ki [1, 4]: 15.4 nM | activation at 0.1 µM [2]: 86% | activation at 0.1 µM [3]: -10%

COc1cc2nn(C)cc2cc1-c1cc(-c2cnnc3c2ncn3C(C)C)ccc1F [Example 49, 4-(4-Fluoro-3-(6-methoxy-2-methyl-2H-indazol-5-yl)phenyl)-7-isopropyl-7H-imidazo[4,5-c]pyridazine]
Ki [1, 4]: 9.16 nM | activation at 0.1 µM [2]: 94% | activation at 0.1 µM [3]: 58%

CCn1cnc2c(-c3ccc(F)c(-c4cc5c(cc4OC)ncn5C4COC4)c3)cnnc21 (single isomer, unassigned) [Example 135, 7-Ethyl-4-(4-fluoro-3-(5-methoxy-1-(oxetan-3-yl)-1H-benzo[d]imidazol-6-yl)phenyl)-7H-imidazo[4,5-c]pyridazine]
Ki [1, 4]: 28.2 nM | activation at 0.1 µM [2]: 142% | activation at 0.1 µM [3]: 68%

CCn1cnc2c(-c3ccc(F)c(-c4cc5cc(COC)c(=O)n(C)c5cc4OC)c3)cnnc21 [Example 166, 6-(5-(7-Ethyl-7H-imidazo[4,5-c]pyridazin-4-yl)-2-fluorophenyl)-7-methoxy-3-(methoxymethyl)-1-methylquinolin-2(1H)-one]
Ki [1, 4]: 2.39 nM | activation at 0.1 µM [2]: 128% | activation at 0.1 µM [3]: 12%

CCn1cnc2c(-c3ccc(F)c(-c4cc5cccnc5cc4OC)c3)cnnc21 [Example 139, 6-(5-(7-Ethyl-7H-imidazo[4,5-c]pyridazin-4-yl)-2-fluorophenyl)-7-methoxyquinoline]
Ki [1, 4]: 13.2 nM | activation at 0.1 µM [2]: 122% | activation at 0.1 µM [3]: 35%

CCn1cnc2c(-c3ccc(F)c(-c4cc5cn([C@H]6CCN(C)C[C@@H]6F)nc5cc4OC)c3)cnnc21 (racemic) [Example 63, 7-Ethyl-4-(4-fluoro-3-(2-((3S,4S)-3-fluoro-1-methylpiperidin-4-yl)-6-methoxy-2H-indazol-5-yl)phenyl)-7H-imidazo[4,5-c]pyridazine]
Ki [1, 4]: 3.51 nM | activation at 0.1 µM [2]: 81% | activation at 0.1 µM [3]: 37%

CCn1cnc2c(-c3ccc(F)c(-c4cc5oc(C)nc5cc4OC)c3)cnnc21 [Example 133, 6-(5-(7-Ethyl-7H-imidazo[4,5-c]pyridazin-4-yl)-2-fluorophenyl)-5-methoxy-2-methylbenzo[d]oxazole]
Ki [1, 4]: 12.7 nM | activation at 0.1 µM [2]: 130% | activation at 0.1 µM [3]: 16%
